Experimental data from patent US10407409B2, “6-(5-hydroxy-1H-pyrazol-1-yl)nicotinamide inhibitors of PHD” (Takeda Pharmaceutical Company Limited, priority 2013, dated 2019).

Assays:
[1] = test system: C57 mice; assay: In vivo cardioprotection assay, Langendorff global ischemia/reperfusion, mice; details: oral, 60 min reperfusion; for reduced area of the infarct compared to vehicle control: 4 h after dosing, 30 min global ischemia
Description: (§1) Example C In Vivo Cardioprotection Assay
(§2) PHD inhibitor or vehicle was administered orally to 8-week old male C57 mice or Sprague Dawley rats. Four hours after dosing, hearts were removed quickly and perfused in a retrograde manner with modified Krebs-Henseleit buffer in a Langendorff apparatus at constant pressure (80 mmHg). To measure infarct size, hearts were first perfused for 20 min to reach equilibrium and then subjected to a 30-minute global ischemia (no-flow) period followed by a 60-min reperfusion period in mice or 90-min reperfusion in rats. The ventricles were cut transversely into 5 sections. The slices were stained 1% 2,3,5-triphenyl tetrazolium chloride (TTC) and scanned to measure the infarct area and the total area. Cardiac injury was assessed by measuring lactate dehydrogenase (LDH) release to coronary effluent during the 60-min reperfusion period (in mice only). The amount of LDH release was determined using an LDH activity assay kit (MBL International Corp.) as expressed as % of vehicle treated hearts.

[2] = biological target: PHD2 enzyme (residues 181-417) (Homo sapiens (Human), UniProt Q9GZT9); assay: Inhibition of PHD enzyme (LC/MS peptide hydroxylation assay); assay type: biochemical; details: PHD2 (residues 181-417) 5 nM, 60 min pre-incubation; -log(IC50), IC50 molar
How it was run: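 PHD2 (5 nM final) preincubated with inhibitor 60 min at RT in 50 mM HEPES, 50 mM KCl, 0.5 mM TCEP, 2 uM FeCl2, 0.1 mg/ml BSA, pH 7.3. Reaction started with biotin-peptide (1 uM), 2-oxoglutarate (2 uM), ascorbate (1 mM), quenched at 60 min; hydroxylated product by LC/MS, reported as pIC50.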

[3] = test system: HIF1a protein in H9c2 rat cardiomyocytes; assay: Cell-based HIF-alpha stabilization assay (inhibition of PHD in cells); details: Rattus norvegicus, H9c2, 24 h, 24 hrs compound incubation, HIF1a protein by ELISA, read-out: Inhibition of PHD in cells (pEC50) (converted)
How it was run: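 Rat H9c2 cardiomyocytes, cultured 24 h, were treated 24 h with an 11-point serial dilution of compound. HIF1a in whole-cell lysates was quantified by ELISA as % of the maximal desferrioxamine response. EC50 came from curve fitting; EC50pos is the concentration reaching 50% of the desferrioxamine maximum.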

[4] = test system: Sprague Dawley rats; assay: In vivo cardioprotection assay, Langendorff global ischemia/reperfusion, rats; details: oral, 5 mg/kg, 30 min global ischemia, 90 min reperfusion
Description: as §1, §2

[5] = test system: VEGF; assay: Heart gene changes for vascular endothelial growth factor (VEGF), qRT-PCR; assay type: in vivo, mice; details: 60 mg/kg; for VEGF % Increase Compared to Control: male C57BL/6 mice, oral, heart, 2 h after dosing
Description: Example D Determination of Heart Gene Changes for Vascular Endothelial Growth Factor (VEGF)
PHD inhibitor or vehicle were administered orally to male C57BL/6 in groups of four. The compounds were formulated in 30% hydroxypropyl beta-cyclodextrin in 50 mM Sodium Phosphate pH7.4 at doses of 30 mg/kg and 60 mg/kg. Two hours after dosing the mice were euthanized by CO2 and the hearts were removed quickly, sectioned into 2 pieces; the lower (apical) section was snap frozen and stored at −80° C. and analyzed for VEGF gene changes applying qRT-PCR and using Life Technologies #4392938 and an RNA extraction protocol using Qiagen #74881 RNeasy 96 Universal Tissue Kit. Standards are made from RNA from combined vehicle treated animals at a concentration of 100 μg/mL, a 7 point curve is made with 1:4 dilutions and a blank. Samples are run on using RNA-to-CT 1-Step method using a StepOnePlus Real-Time PCR System from Applied Biosystems Relative quantitation is expressed by dividing the quantity of VEGF by the quantity of the reference gene. Treatment groups and vehicle control were combined and averaged.

Chain of PHD2 enzyme (residues 181-417) (Q9GZT9 181-417): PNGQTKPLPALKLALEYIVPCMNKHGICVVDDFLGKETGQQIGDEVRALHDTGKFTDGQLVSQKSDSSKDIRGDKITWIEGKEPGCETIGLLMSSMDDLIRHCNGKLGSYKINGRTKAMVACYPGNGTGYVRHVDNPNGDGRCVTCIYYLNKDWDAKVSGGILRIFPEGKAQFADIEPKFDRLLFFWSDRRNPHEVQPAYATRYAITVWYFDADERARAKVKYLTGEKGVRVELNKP

Row | Compound | PHD Inhibition (pIC50) [2] | EC50 [3] [nM] | also measured
1 | CCN1CCN(C(=O)c2ccc(-n3ncc(-c4ccc(C#N)cc4C)c3O)nc2)CC1 [Example 282, 4-(1-(5-(4-ethylpiperazine-1-carbonyl)pyridin-2-yl)-5-hydroxy-1H-pyrazol-4-yl)-3-methylbenzonitrile] | 8.00 | 575 | reduction of LDH released to the coronary effluent ([1]; 10 mg/kg): 51%; reduced area of the infarct compared to vehicle control ([1]; 10 mg/kg): 50%; reduction of LDH released to the coronary effluent ([1]; 30 mg/kg): 56%; reduced area of the infarct compared to vehicle control ([1]; 30 mg/kg): 59%; reduced area of the infarct [4]: 30%; greater VEGF mRNA production compared to the compound of Example R1 ([5]; mouse heart): 2 fold; VEGF % Increase Compared to Control [5]: 203.1%
2 | Cc1cc(C#N)ccc1-c1cnn(-c2ccc(C(=O)N3CCN4CCC3CC4)cn2)c1O [Example 428, (S)-4-(1-(5-(1,4-diazabicyclo[3.2.2]nonane-4-carbonyl)pyridin-2-yl)-5-hydroxy-1H-pyrazol-4-yl)-3-methylbenzonitrile] | 7.88 | 501 | 
3 | CCN(C(=O)c1ccc(-n2ncc(-c3ccc(C#N)cc3C)c2O)nc1)C1CCN(C)CC1 [Example 429, 6-(4-(4-cyano-2-methylphenyl)-5-hydroxy-1H-pyrazol-1-yl)-N-ethyl-N-(1-methylpiperidin-4-yl)nicotinamide] | 7.95 | 589 | 
4 | Cc1cc(-n2ncc(-c3ccc(C#N)cc3)c2O)ncc1C(=O)N1CCN(C)CC1 [Example 430, 4-(5-hydroxy-1-(4-methyl-5-(4-methylpiperazine-1-carbonyl)pyridin-2-yl)-1H-pyrazol-4-yl)benzonitrile] | 7.44 | 8510 | 
5 | Cc1cc(-n2ncc(-c3ccc(C#N)cc3)c2O)ncc1C(=O)N(C)C1CCN(C)CC1 [Example 431, 6-(4-(4-cyanophenyl)-5-hydroxy-1H-pyrazol-1-yl)-N,4-dimethyl-N-(1-methylpiperidin-4-yl)nicotinamide] | 7.31 | 2750 | 
6 | Cc1cc(C#N)ccc1-c1cnn(-c2ccc(C(=O)N(C)C3CN(C)C3)cn2)c1O [Example 432, 6-(4-(4-cyano-2-methylphenyl)-5-hydroxy-1H-pyrazol-1-yl)-N-methyl-N-(1-methylazetidin-3-yl)nicotinamide] | 8.02 | 741 | 
7 | CCN1CCN(C(=O)c2ccc(-n3ncc(-c4cc(F)c(C#N)cc4C)c3O)nc2)[C@@H](C)C1 [Example 433, (S)-4-(1-(5-(4-ethyl-2-methylpiperazine-1-carbonyl)pyridin-2-yl)-5-hydroxy-1H-pyrazol-4-yl)-2-fluoro-5-methylbenzonitrile] | 8.20 | 363 | 
8 | CCN1CCN(C(=O)c2ccc(-n3ncc(-c4ccc(C#N)cc4C)c3O)nc2)[C@H](C)C1 [Example 434, (R)-4-(1-(5-(4-ethyl-2-methylpiperazine-1-carbonyl)pyridin-2-yl)-5-hydroxy-1H-pyrazol-4-yl)-3-methylbenzonitrile] | 8.20 | 1290 | 
9 | CC(C)(C)NC(=O)c1ccc(-n2ncc(-c3cccnc3)c2O)nc1 [Example R1, N-tert-butyl-6-(5-oxo-4-pyridin-3-yl-2,5-dihydro-1H-pyrazol-1-yl)pyridine-3-carboxamide, reference compound] |  | 955 | VEGF % Increase Compared to Control [5]: 95.2%
